# Laboratory results from ChEMBL document CHEMBL4732046, “A red-light-activated sulfonamide porphycene for highly efficient photodynamic therapy against hypoxic tumor” (Eur J Med Chem, 2021).
# Active and inactive are the calls of the source. No cut-off for these calls is given here.
# Assays:
# B16 [1] = assay: Antiproliferative activity against mouse B16 cells assessed as inhibition of cell proliferation irradiated with 640 +/- 15 nm red LED for 4 hrs in presence of 30 uM L-histidine measured after 24 hrs by MTT assay; type: functional, cell-based
# HeLa = assay: Photo-therapeutic index, ratio of LD50 for photocytotoxicity against human HeLa cells assessed as reduction in cell viability irradiated with 640 +/- 15 nm red LED for 4 hrs measured after 24 hrs by MTT assay to LD50 for cytotoxicity against human HeLa cells assessed as cell viability in dark measured after 24 hrs by MTT assay; type: functional
# B16 [2] = assay: Induction of apoptosis in mouse B16 cells assessed as apoptotic cells at 200 nM irradiated with 640 +/- 15 nm red LED for 1 hrs after 24 hrs by Annexin V-FITC/propidium iodide staining based flow cytometric analysis relative to control; type: functional, cell-based
# [3] = Toxicity in C57BL/6 mouse assessed as effect on blood urea nitrogen level measured upto 14 days; conditions: in vivo, 336 h, time <=14 day
# KYSE-70 cell line [4] = assay: Photocytotoxicity against human KYSE-70 cells assessed as reduction in cell viability irradiated with 640 +/- 15 nm red LED for 4 hrs measured after 24 hrs under hypoxic condition by MTT assay; type: functional, cell-based; conditions: KYSE-70, light or radiation study
# B16 [5] = assay: Antiproliferative activity against mouse B16 cells assessed as inhibition of cell proliferation irradiated with 640 +/- 15 nm red LED for 4 hrs in presence of 30 uM D-mannitol measured after 24 hrs under hypoxic condition by MTT assay; type: functional, cell-based
# A-375 = assay: Induction of intracellular reactive oxygen species production in human A-375 cells assessed as […] membrane damage at 200 nM irradiated with 640 +/- 15 nm red LED for 1 hr measured after 4 hrs by mito-tracker green based confocal microscopic method; type: functional, cell-based
# [6] = Drug uptake in human A-375 cells incubated for 24 hrs in presence of 2-deoxyglucose and sodium azide by mito-tracker green based confocal microscopic method; type: ADME, cell-based; conditions: a-375, 24 h
# B16 [7] = assay: Induction of mitochondrial membrane potential disruption in mouse B16 cells assessed as reduction in red fluorescence upto 400 nM irradiated with 640 +/- 15 nm red LED for 1 hrs measured after 24 hrs by JC1 staining based fluorescence microscopy; type: functional, cell-based; conditions: dose nM <=400, time 24.0 hrs
# KYSE-70 cell line [8] = assay: Photocytotoxicity against human KYSE-70 cells assessed as reduction in cell viability irradiated with 640 +/- 15 nm red LED for 4 hrs measured after 24 hrs by MTT assay; type: functional, cell-based; conditions: KYSE-70, light or radiation study
# B16 [9] = assay: Induction of morphological changes in mouse B16 cells assessed as nuclear shrinkage at 200 to 400 nM incubated for 24 hrs by Hoechst 33258 staining based assay; type: functional, cell-based; conditions: dose 200-400 nM
# [10] = Toxicity in C57BL/6 mouse assessed as effect on creatine kinase level measured upto 14 days; conditions: in vivo, 336 h, time <=14 day
# [11] = Toxicity in C57BL/6 mouse assessed as effect on serum creatinine level measured upto 14 days; conditions: in vivo, 336 h, time <=14 day
# [12] = Drug uptake in mouse B16 cells lysosome after 24 hrs by Lyso-Tracker Red dye based confocal microscopic method; type: ADME, subcellular; conditions: b16, 24 h
# [13] = Toxicity in C57BL/6 mouse model assessed as effect on spleen treated intratumorally once every 2 days for 2 weeks followed every dosing irradiated with 640 +/- 15 nm red LED for 4 hrs measured upto 28 days by H and E staining dependent light microscopy based histopathological analysis; type: tissue-based; conditions: in vivo, other, time <=28 day
structure (smiles),measurement,setting,value
CC(C)(C)C1=Cc2nc1ccc1[nH]c(cc1S(=O)(=O)NCCOCCO)c1nc(ccc3[nH]c2cc3C(C)(C)C)C(C(C)(C)C)=C1,Activity,B16 [1],Active
same,Ratio,HeLa,>2040
same,Activity,B16 [2],Active
same,Activity,[3],Non-Toxic
same,DC50,KYSE-70 cell line [4],51 nM
same,Activity,B16 [5],inactive
same,Activity,A-375,Active
same,Drug uptake,[6],Not Active
same,Activity,B16 [7],Active
same,DC50,KYSE-70 cell line [8],31 nM
same,Activity,B16 [9],Active
same,Activity,[10],Non-Toxic
same,Activity,[11],Non-Toxic
same,Drug uptake,[12],Active
same,Activity,[13],Non-Toxic
